Measured values as given in patent US8399712B2 (priority 2010, dated 2013).

Legend:
[1] = Relative humidity stability, saturated salt solutions at ambient temperature, XRPD; type: physicochemical; settings: for Dissociation by XRPD: 75, 94, or 98% RH after four weeks
Text: Upon completion of the duration allowed, the samples were immediately analyzed by XRPD.

[2] = Slurrying in water, resulting solid form; type: physicochemical; settings: for Behaviour upon slurrying in water: three days
hyperglycemic rats = settings: cited from earlier work
[3] = literature (Lopez-Nicolas 2009); cited from earlier work
[4] = literature; cited from earlier work
cancer cell lines = settings: in vitro; cited from earlier work
[5] = type: physicochemical; settings: slurrying in water at ambient, after 5 minutes
[6] = Attempted intrinsic dissolution of cocrystal 3 in 900 mL water; type: physicochemical; settings: 900 mL water at ambient conditions, after 30 minutes
Protocol: Intrinsic dissolution in 900 mL water at ambient conditions was also attempted. […] Therefore, a concentration vs. time and intrinsic dissolution rate value were unobtainable at these conditions.

Cn1c(=O)c2c(ncn2C)n(C)c1=O [caffeine, reference compound]
Results (form by XRPD) ([1]; 75% RH, 1 week): caffeine anhydrous | Results (form by XRPD) ([1]; 75% RH, 4 weeks): caffeine anhydrous | Results (form by XRPD) ([1]; 75% RH, 1 day): caffeine anhydrous | Results (form by XRPD) ([1]; 75% RH, 3 days): caffeine anhydrous | Conversion to hydrate ([1]; 75% RH, up to four weeks): does not display signs of conversion | Conversion to hydrate ([1]; 94% RH): between one and three days at 94% RH partial conversion | Results (form by XRPD) ([1]; 94% RH, 1 week (7 days)): caffeine hydrate | Results (form by XRPD) ([1]; 94% RH, 4 weeks): caffeine hydrate | Results (form by XRPD) ([1]; 94% RH, 1 day): caffeine anhydrous | Results (form by XRPD) ([1]; 94% RH, 3 days): caffeine anhydrous/caffeine hydrate | Conversion to hydrate ([1]; 98% RH): converts to caffeine hydrate in less than one day | Results (form by XRPD) ([1]; 98% RH, 1 week): caffeine hydrate | Results (form by XRPD) ([1]; 98% RH, 4 weeks): caffeine hydrate | Results (form by XRPD) ([1]; 98% RH, 1 day): caffeine hydrate | Results (form by XRPD) ([1]; 98% RH, 3 days): caffeine hydrate

COc1cc(/C=C/c2ccc(O)cc2)cc(OC)c1.Cn1c(=O)c2c(ncn2C)n(C)c1=O [cocrystal 1 (Form I), pterostilbene:caffeine]
Results (form by XRPD) ([1]; 75% RH, 1 week): cocrystal 1 (Form I), no caffeine hydrate | Results (form by XRPD) ([1]; 75% RH, 1 week, additional stress at 98% RH): cocrystal 1 (Form I), no caffeine hydrate | Results (form by XRPD) ([1]; 75% RH, 4 weeks): cocrystal 1 (Form I), no caffeine hydrate | Results (form by XRPD) ([1]; 75% RH, 1 day): cocrystal 1 (Form I), no caffeine hydrate | Results (form by XRPD) ([1]; 75% RH, 1 day, additional stress at 98% RH): cocrystal 1 (Form I), no caffeine hydrate | Results (form by XRPD) ([1]; 75% RH, 3 days): cocrystal 1 (Form I), no caffeine hydrate | Results (form by XRPD) ([1]; 94% RH, 1 week (7 days)): cocrystal 1 (Form I), no caffeine hydrate | Results (form by XRPD) ([1]; 94% RH, 4 weeks): cocrystal 1 (Form I), no caffeine hydrate | Results (form by XRPD) ([1]; 94% RH, 1 day): cocrystal 1 (Form I), no caffeine hydrate | Results (form by XRPD) ([1]; 94% RH, 3 days): cocrystal 1 (Form I), no caffeine hydrate | Results (form by XRPD) ([1]; 94% RH, 7 days, additional stress at 98% RH, 4 weeks): cocrystal 1 (Form I), no caffeine hydrate | Results (form after stress) ([2]; slurry, 2 days): cocrystal 1 (Form I), no caffeine hydrate | Behaviour upon slurrying in water [2]: precipitation of pterostilbene

COc1cc(/C=C/c2ccc(O)cc2)cc(OC)c1.Cn1c(=O)c2c(ncn2C)n(C)c1=O [cocrystal 1, pterostilbene:caffeine]
Dissociation by XRPD [1]: no dissociation

CN(C)C(=N)N=C(N)N [metformin]
Decrease of plasma glucose levels (hyperglycemic rats): 48%

COc1cc(/C=C/c2ccc(O)cc2)cc(OC)c1 [pterostilbene, trans-3,5-dimethoxy-4′-hydroxystilbene]
Solubility in water [3]: poor solubility in water | Bioavailability [4]: poor bioavailability | Cytotoxic activity against cancer cell lines (cancer cell lines): demonstrated cytotoxic activity

pterostilbene:carbamazepine [cocrystal 2]
Results (form by XRPD) ([1]; 75% RH, 1 week): cocrystal 2, no carbamazepine dihydrate | Results (form by XRPD) ([1]; 75% RH, 4 weeks): cocrystal 2, no carbamazepine dihydrate | Results (form by XRPD) ([1]; 75% RH, 1 day): cocrystal 2, no carbamazepine dihydrate | Results (form by XRPD) ([1]; 75% RH, 3 days): cocrystal 2, no carbamazepine dihydrate | Results (form by XRPD) ([1]; 94% RH, 1 week (7 days)): cocrystal 2, no carbamazepine dihydrate | Results (form by XRPD) ([1]; 94% RH, 4 weeks): cocrystal 2, no carbamazepine dihydrate | Results (form by XRPD) ([1]; 94% RH, 1 day): cocrystal 2, no carbamazepine dihydrate | Results (form by XRPD) ([1]; 94% RH, 3 days): cocrystal 2, no carbamazepine dihydrate | Results (form by XRPD) ([1]; 98% RH, 1 week): cocrystal 2, no carbamazepine dihydrate | Results (form by XRPD) ([1]; 98% RH, 4 weeks): cocrystal 2, no carbamazepine dihydrate | Results (form by XRPD) ([1]; 98% RH, 1 day): cocrystal 2, no carbamazepine dihydrate | Results (form by XRPD) ([1]; 98% RH, 3 days): cocrystal 2, no carbamazepine dihydrate | Behaviour upon slurrying in water [2]: stable

pterostilbene:glutaric acid [cocrystal 3]
XRPD result of attempted powder dissolution [5]: crystalline pterostilbene | XRPD result of attempted intrinsic dissolution [6]: crystalline pterostilbene | Dissociation by XRPD [1]: no dissociation
